Results as given in PubChem BioAssay AID192 (DTP/NCI, 2004).
Where “and” joins values, the source holds several entries; their conditions need not be identical. Equal values may be shown once. Inconclusive results and toxic doses are left out.

System: BDF1 mice, B16 melanoma ip, median survival T/C
Experiment: NCI In Vivo Anticancer Drug Screen. Data for tumor model B16 Melanoma (intraperitoneal) in B6D2F1 (BDF1) mice
Conditions: endpoint: median survival time, higher = longer survival
Procedure, shortened: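 Values are ratios of treated (T) to vehicle-control (C) measurements of survival or tumor size in tumor-bearing mice.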

[1] = dose: 2.5 mg/kg/injection, schedule: Q01DX009 (ip), vehicle: saline with Tween-80
[2] = dose: 5.0 mg/kg/injection, schedule: Q01DX009 (ip), vehicle: saline with Tween-80
[3] = dose: 6.0 mg/kg/injection, schedule: Q01DX009 (ip), vehicle: saline with Tween-80
[4] = dose: 100.0 mg/kg/injection, schedule: Q01DX009 (ip), vehicle: saline
[5] = dose: 400.0 mg/kg/injection, schedule: Q01DX009 (ip), vehicle: saline
[6] = dose: 1.25 mg/kg/injection, schedule: Q01DX009 (ip), vehicle: saline with Tween-80
[7] = dose: 6.25 mg/kg/injection, schedule: Q01DX009 (ip), vehicle: saline with Tween-80
[8] = dose: 12.5 mg/kg/injection, schedule: Q01DX009 (ip), vehicle: saline with Tween-80
[9] = dose: 25.0 mg/kg/injection, schedule: Q01DX009 (ip), vehicle: saline with Tween-80
[10] = dose: 50.0 mg/kg/injection, schedule: Q01DX009 (ip), vehicle: saline with Tween-80
[11] = dose: 100.0 mg/kg/injection, schedule: Q04DX003 (ip), vehicle: Klucel (hydroxypropylcellulose) (HPC)
[12] = dose: 3.13 mg/kg/injection, schedule: Q01DX009 (ip), vehicle: saline with Tween-80

## CC1OC(=O)C(C(C)C)NC(=O)C(C(C)C)OC(=O)C(C(C)C)NC(=O)C(C)OC(=O)C(C(C)C)NC(=O)C(C(C)C)OC(=O)C(C(C)C)NC(=O)C(C)OC(=O)C(C(C)C)NC(=O)C(C(C)C)OC(=O)C(C(C)C)NC1=O (stereo not drawn)
dose: 0.04 mg/kg/injection, schedule: Q01DX009 (ip), vehicle: saline with Tween-80
  T/C: 101 % of control
dose: 0.08 mg/kg/injection, schedule: Q01DX009 (ip), vehicle: saline with Tween-80
  T/C: 106 % of control
dose: 0.16 mg/kg/injection, schedule: Q01DX009 (ip), vehicle: saline with Tween-80
  T/C: 117 % of control
dose: 0.2 mg/kg/injection, schedule: Q01DX009 (ip), vehicle: DMSO
  T/C: 117 % of control
dose: 0.31 mg/kg/injection, schedule: Q01DX009 (ip), vehicle: saline with Tween-80
  T/C: 152 % of control
dose: 0.4 mg/kg/injection, schedule: Q01DX009 (ip), vehicle: DMSO
  T/C: 176 % of control
dose: 0.75 mg/kg/injection, schedule: Q01DX009 (ip), vehicle: Klucel (hydroxypropylcellulose) (HPC)
  T/C: 106 % of control
dose: 0.75 mg/kg/injection, schedule: Q01DX009 (oral), vehicle: Klucel (hydroxypropylcellulose) (HPC)
  T/C: 101 % of control
dose: 1.5 mg/kg/injection, schedule: Q01DX009 (ip), vehicle: Klucel (hydroxypropylcellulose) (HPC)
  T/C: 101 % of control
dose: 1.5 mg/kg/injection, schedule: Q01DX009 (oral), vehicle: Klucel (hydroxypropylcellulose) (HPC)
  T/C: 104 % of control
[1]
  T/C: 153 % of control
dose: 3.0 mg/kg/injection, schedule: Q01DX009 (oral), vehicle: Klucel (hydroxypropylcellulose) (HPC)
  T/C: 105 % of control
[2]
  T/C: 183 % of control
dose: 5.0 mg/kg/injection, schedule: Q01DX009 (oral), vehicle: saline with Tween-80
  T/C: 105 % of control
[3]
  T/C: 165 % of control
dose: 6.0 mg/kg/injection, schedule: Q01DX009 (oral), vehicle: Klucel (hydroxypropylcellulose) (HPC)
  T/C: 107 % of control
dose: 10.0 mg/kg/injection, schedule: Q01DX009 (ip), vehicle: saline with Tween-80
  T/C: 171 % of control
dose: 10.0 mg/kg/injection, schedule: Q01DX009 (oral), vehicle: saline with Tween-80
  T/C: 116 % of control
dose: 12.0 mg/kg/injection, schedule: Q01DX009 (oral), vehicle: Klucel (hydroxypropylcellulose) (HPC)
  T/C: 100 % of control
dose: 20.0 mg/kg/injection, schedule: Q01DX009 (ip), vehicle: saline with Tween-80
  T/C: 94 % of control
dose: 20.0 mg/kg/injection, schedule: Q01DX009 (oral), vehicle: saline with Tween-80
  T/C: 116 % of control
dose: 24.0 mg/kg/injection, schedule: Q01DX009 (oral), vehicle: Klucel (hydroxypropylcellulose) (HPC)
  T/C: 94 % of control
dose: 40.0 mg/kg/injection, schedule: Q01DX009 (oral), vehicle: saline with Tween-80
  T/C: 109 % of control

## CCOP(=O)(CCCCN1C(=O)c2ccccc2C1=O)OCC
[4]
  T/C: 104 % of control
dose: 200.0 mg/kg/injection, schedule: Q01DX009 (ip), vehicle: saline
  T/C: 96 % of control
[5]
  T/C: 103 % of control

## CC(=O)Nc1cc(F)c([N+](=O)[O-])cc1[N+](=O)[O-]
dose: 0.63 mg/kg/injection, schedule: Q01DX009 (ip), vehicle: saline with Tween-80
  T/C: 104 % of control
[6]
  T/C: 90 % of control
[1]
  T/C: 104 % of control

## CCOC(=O)C1=C(C)O/C(=C/c2cccc(Cl)c2)C1=O
[7]
  T/C: 110 % of control
[8]
  T/C: 113 % of control
[9]
  T/C: 113 % of control
[10]
  T/C: 86 % of control and 107 % of control
dose: 100.0 mg/kg/injection, schedule: Q01DX009 (ip), vehicle: saline with Tween-80
  T/C: 97 % of control

## Cc1cc(Cl)ccc1NC(=O)c1ccc(Cl)cc1Cl
[11]
  T/C: 100 % of control
dose: 200.0 mg/kg/injection, schedule: Q04DX003 (ip), vehicle: Klucel (hydroxypropylcellulose) (HPC)
  T/C: 97 % of control
dose: 400.0 mg/kg/injection, schedule: Q04DX003 (ip), vehicle: Klucel (hydroxypropylcellulose) (HPC)
  T/C: 97 % of control

## CN1CCc2cc3c(c4c2C1C(O)c1ccccc1-4)OCO3 (stereo not drawn)
dose: 0.5 mg/kg/injection, schedule: Q01DX009 (ip), vehicle: acid diluted with saline
  T/C: 113 % of control
dose: 1.0 mg/kg/injection, schedule: Q01DX009 (ip), vehicle: acid diluted with saline
  T/C: 109 % of control
dose: 2.0 mg/kg/injection, schedule: Q01DX009 (ip), vehicle: acid diluted with saline
  T/C: 96 % of control
dose: 4.0 mg/kg/injection, schedule: Q01DX009 (ip), vehicle: acid diluted with saline
  T/C: 89 % of control

## N#CC(=C1C=CC(=NO)C=C1)c1ccccc1
dose: 12.5 mg/kg/injection, schedule: Q01DX009 (ip), vehicle: Klucel (hydroxypropylcellulose) (HPC)
  T/C: 100 % of control
dose: 50.0 mg/kg/injection, schedule: Q01DX009 (ip), vehicle: Klucel (hydroxypropylcellulose) (HPC)
  T/C: 112 % of control
dose: 100.0 mg/kg/injection, schedule: Q01DX009 (ip), vehicle: Klucel (hydroxypropylcellulose) (HPC)
  T/C: 103 % of control

## CC(=O)Oc1cc2c3c(c1)CCCN3CCC2
[12]
  T/C: 90 % of control
[7]
  T/C: 90 % of control
dose: 15.0 micrograms/kg/injection, schedule: Q01DX009 (ip), vehicle: saline
  T/C: 104 % of control
dose: 30.0 micrograms/kg/injection, schedule: Q01DX009 (ip), vehicle: saline
  T/C: 97 % of control
dose: 60.0 micrograms/kg/injection, schedule: Q01DX009 (ip), vehicle: saline
  T/C: 93 % of control
dose: 250.0 micrograms/kg/injection, schedule: Q01DX009 (ip), vehicle: saline with Tween-80
  T/C: 86 % of control
dose: 500.0 micrograms/kg/injection, schedule: Q01DX009 (ip), vehicle: saline with Tween-80
  T/C: 86 % of control

## COc1cc(NC(=O)CC(C)=O)cc(OC)c1OC
[4]
  T/C: 112 % of control
dose: 132.0 mg/kg/injection, schedule: Q01DX009 (ip), vehicle: saline with Tween-80
  T/C: 100 % of control
dose: 200.0 mg/kg/injection, schedule: Q01DX009 (ip), vehicle: saline with Tween-80
  T/C: 95 % of control
dose: 300.0 mg/kg/injection, schedule: Q01DX009 (ip), vehicle: saline with Tween-80
  T/C: 95 % of control
[5]
  T/C: 90 % of control

## CCN(CC)C(=O)c1ccc(C(Cl)(Cl)Cl)cc1
[7]
  T/C: 95 % of control
[8]
  T/C: 98 % of control
[9]
  T/C: 90 % of control and 92 % of control

## CC1C[N-]CC(C)C1.CC1C[N-]CC(C)C1.CC1C[N-]CC(C)C1.CC1C[N-]CC(C)C1.[Cl][Rh][Cl] (stereo not drawn)
dose: 1.5 mg/kg/injection, schedule: Q01DX009 (ip), vehicle: saline with Tween-80
  T/C: 91 % of control
dose: 3.0 mg/kg/injection, schedule: Q01DX009 (ip), vehicle: saline with Tween-80
  T/C: 107 % of control
dose: 3.0 mg/kg/injection, schedule: Q01DX009 (ip), vehicle: saline
  T/C: 116 % of control
[3]
  T/C: 93 % of control
dose: 6.0 mg/kg/injection, schedule: Q01DX009 (ip), vehicle: saline
  T/C: 116 % of control

## CCOC(=O)CCCc1ccc(N=NN(C)C)cc1
dose: 1.56 mg/kg/injection, schedule: Q01DX009 (ip), vehicle: saline with Tween-80
  T/C: 102 % of control
[12]
  T/C: 105 % of control
[7]
  T/C: 100 % of control

## Cn1c(CC#N)c(C[N+](C)(C)C)c2ccccc21
[6]
  T/C: 104 % of control
[1]
  T/C: 86 % of control
[2]
  T/C: 100 % of control

## C=C(Br)CNC(=O)CCC
dose: 2.5 mg/kg/injection, schedule: Q01DX009 (ip), vehicle: saline
  T/C: 103 % of control
dose: 5.0 mg/kg/injection, schedule: Q01DX009 (ip), vehicle: saline
  T/C: 112 % of control
dose: 10.0 mg/kg/injection, schedule: Q01DX009 (ip), vehicle: saline
  T/C: 104 % of control

## O=C(O)C(=O)O.[U]
dose: 4.0 mg/kg/injection, schedule: Q01DX009 (ip), vehicle: Klucel (hydroxypropylcellulose) (HPC)
  T/C: 88 % of control
dose: 8.0 mg/kg/injection, schedule: Q01DX009 (ip), vehicle: Klucel (hydroxypropylcellulose) (HPC)
  T/C: 93 % of control
dose: 16.0 mg/kg/injection, schedule: Q01DX009 (ip), vehicle: Klucel (hydroxypropylcellulose) (HPC)
  T/C: 87 % of control

## C=C1C(C)C2C(Cc3ccccc3)NC(=O)C23OC(=O)/C=C\CC(=O)CCC(C)C/C=C/C3C1O (stereo not drawn)
dose: 2.5 mg/kg/injection, schedule: Q01DX009 (ip), vehicle: Klucel (hydroxypropylcellulose) (HPC)
  T/C: 94 % of control

## CC(C)CC(NC(=O)OC(C)(C)C)C(=O)ON1C(=O)CCC1=O (stereo not drawn)
[7]
  T/C: 93 % of control
[8]
  T/C: 93 % of control
[9]
  T/C: 96 % of control
[10]
  T/C: 90 % of control and 92 % of control

## CCCCCCCCCCCCCCCCCCNC(=O)Nc1ccc(C(C)C)cc1
dose: 25.0 mg/kg/injection, schedule: Q04DX003 (ip), vehicle: Klucel (hydroxypropylcellulose) (HPC)
  T/C: 86 % of control
[11]
  T/C: 86 % of control and 89 % of control
